Test results taken from ChEMBL document CHEMBL4011641, “Prodrugs of Pyrazolo[3,4-d]pyrimidines: From Library Synthesis to Evaluation as Potential Anticancer Agents in an Orthotopic Glioblastoma Model” (J Med Chem, 2017).
In brackets after ≈: the same amount, converted by molar mass.

Columns and labels:
[1] = Half life in PBS buffer at 100 uM at pH 7.4 by UV/LC-MS analysis; type: physicochemical
[2] = Half life in methanol at 100 uM by UV/LC-MS analysis; type: physicochemical
physchem [3] = settings: PAMPA
Description: Apparent permeability at 500 uM after 5 hrs by Blood-Brain Barrier-based PAMPA

physchem [4] = settings: aqueous
Description: Aqueous solubility of compound at 1 mg after 24 hrs by UV/LC-MS analysis

physchem [5] = settings: PAMPA; remark: listed apart in the source
Description: (§1) Apparent permeability at 500 uM after 5 hrs by Gastro-intestinal-based PAMPA

[6] = Half life in human plasma by UV/LC-MS analysis; type: ADME, cell-free
[7] = Metabolic stability in human liver microsomes assessed as parent compound remaining at 50 uM after 1 hr in presence of NADPH regenerating system by UV/LC-MS analysis; type: ADME, microsome; settings: read-out: Stability
cells [8] = settings: Homo sapiens, U-87 MG, 48 h
Description: Cytotoxicity against human U87 cells assessed as reduction in cell viability after 48 hrs by trypan blue assay

cells [9] = settings: Homo sapiens, U-87 MG, 24 h
Description: Cytotoxicity against human U87 cells assessed as reduction in cell viability after 24 hrs by trypan blue assay

[10] = target: Proto-oncogene tyrosine-protein kinase Src (Homo sapiens, UniProt P12931); test: biochemical
Description: Inhibition of human wild type full length N-terminal GST/6His-tagged SRC (M1 to L536 residues) expressed in baculovirus infected Sf9 cells using src peptide as substrate after 5 mins in presence of [gamma-32P]ATP by scintillation counting method

cells [11] = settings: Homo sapiens, U-87 MG, 72 h
Description: Cytotoxicity against human U87 cells assessed as reduction in cell viability after 72 hrs by trypan blue assay

[12] = pampa, 5 h, 500 µM
Description: as §1

[13] = Metabolic stability in mouse liver microsomes assessed as unmetabolized compound remaining at 50 uM after 1 hr in presence of NADPH regenerating system by UV/LC-MS analysis; type: ADME, microsome; settings: read-out: Stability
[14] = Drug uptake in cytoplasm of human U87 cells at 20 uM after 2 hrs by UV/LC-MS analysis; type: ADME
[15] = Prodrug activation in human U87 cells assessed as N-(3-bromophenyl)-6-(methylthio)-1-(2-phenylpropyl)-1H-pyrazolo[3,4-d]pyrimidin-4-amine formation at 20 uM up to 25 hrs by UV/LC-MS analysis; type: cell-based; settings: u-87mg atcc
[16] = Drug uptake in cytoplasm of human U87 cells at 20 uM after 5 hrs by UV/LC-MS analysis; type: ADME
[17] = Half life in mouse plasma by UV/LC-MS analysis; type: ADME, cell-free
[18] = target: Tyrosine-protein kinase ABL1 (Homo sapiens, UniProt P00519)
Description: Inhibition of human wild type full length N-terminal GST/6His-tagged ABL (P118 to S535 residues) expressed in Sf9 cells using abltide as substrate after 5 mins in presence of [gamma-32P]ATP by scintillation counting

[19] = Drug uptake in cytoplasm of human U87 cells at 20 uM after 7 hrs by UV/LC-MS analysis; type: ADME

Proto-oncogene tyrosine-protein kinase Src, sequence (P12931 2-536 limits assumed): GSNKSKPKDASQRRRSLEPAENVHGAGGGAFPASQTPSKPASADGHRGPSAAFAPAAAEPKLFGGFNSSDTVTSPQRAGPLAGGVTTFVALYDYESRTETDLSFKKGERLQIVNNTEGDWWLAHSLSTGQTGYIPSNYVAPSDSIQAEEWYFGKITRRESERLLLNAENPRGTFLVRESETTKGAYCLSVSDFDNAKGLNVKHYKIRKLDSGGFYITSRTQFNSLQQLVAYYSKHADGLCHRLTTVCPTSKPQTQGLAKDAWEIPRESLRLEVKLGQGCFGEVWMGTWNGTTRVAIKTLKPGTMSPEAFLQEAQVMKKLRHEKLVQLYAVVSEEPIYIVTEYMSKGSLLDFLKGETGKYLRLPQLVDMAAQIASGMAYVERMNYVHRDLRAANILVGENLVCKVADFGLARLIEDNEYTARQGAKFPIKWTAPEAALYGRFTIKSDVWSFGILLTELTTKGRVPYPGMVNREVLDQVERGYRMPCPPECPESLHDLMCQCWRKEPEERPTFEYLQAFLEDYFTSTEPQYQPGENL
Tyrosine-protein kinase ABL1, sequence (P00519 whole entry): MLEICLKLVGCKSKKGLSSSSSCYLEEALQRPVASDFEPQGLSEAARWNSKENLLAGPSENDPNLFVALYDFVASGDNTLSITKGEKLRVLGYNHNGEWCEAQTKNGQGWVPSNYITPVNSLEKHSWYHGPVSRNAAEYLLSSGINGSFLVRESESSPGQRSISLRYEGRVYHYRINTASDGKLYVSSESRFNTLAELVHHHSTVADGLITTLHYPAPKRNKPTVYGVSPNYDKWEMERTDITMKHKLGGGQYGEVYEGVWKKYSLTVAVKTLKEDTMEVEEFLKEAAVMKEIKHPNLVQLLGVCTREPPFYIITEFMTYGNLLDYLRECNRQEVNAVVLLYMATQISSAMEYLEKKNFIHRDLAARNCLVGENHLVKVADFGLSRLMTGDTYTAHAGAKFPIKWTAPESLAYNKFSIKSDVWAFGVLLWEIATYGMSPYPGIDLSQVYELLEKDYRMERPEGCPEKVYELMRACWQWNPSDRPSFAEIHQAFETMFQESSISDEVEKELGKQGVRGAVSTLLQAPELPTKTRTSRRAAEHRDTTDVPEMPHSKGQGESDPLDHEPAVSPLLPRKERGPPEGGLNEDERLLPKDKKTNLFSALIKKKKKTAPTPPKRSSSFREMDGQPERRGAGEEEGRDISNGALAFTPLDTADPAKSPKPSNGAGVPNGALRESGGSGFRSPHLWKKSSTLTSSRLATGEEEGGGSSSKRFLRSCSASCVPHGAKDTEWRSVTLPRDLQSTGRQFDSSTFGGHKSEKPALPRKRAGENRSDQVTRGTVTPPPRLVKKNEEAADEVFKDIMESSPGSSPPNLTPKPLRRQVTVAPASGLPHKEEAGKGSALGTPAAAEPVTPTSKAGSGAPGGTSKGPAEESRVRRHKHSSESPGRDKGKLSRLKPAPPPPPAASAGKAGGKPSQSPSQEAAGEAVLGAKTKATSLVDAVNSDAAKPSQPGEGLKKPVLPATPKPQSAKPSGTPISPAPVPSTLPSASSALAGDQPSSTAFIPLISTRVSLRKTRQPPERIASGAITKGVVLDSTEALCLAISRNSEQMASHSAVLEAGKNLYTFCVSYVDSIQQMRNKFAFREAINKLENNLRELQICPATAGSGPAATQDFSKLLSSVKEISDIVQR

| Compound | half-life at 100 µM [1] [h] | half-life at 100 µM [2] [h] | Papp at 5 h, 500 µM (physchem [3]) [×10⁻⁶ cm/s] | solubility at 24 h (physchem [4]) [µg/mL] | Papp at 5 h, 500 µM (physchem [5]) [×10⁻⁶ cm/s] | half-life [6] [h] | remaining at 1 h, 50 µM [7] [%] | IC50 (cells [8]) [µM] | IC50 (cells [9]) [µM] | Ki [10] [µM] | IC50 (cells [11]) [µM] | Papp [12] [×10⁻⁶ cm/s] | remaining at 1 h, 50 µM [13] [%] | Drug uptake [14] | Drug metabolism [15] | Drug uptake [16] | half-life [17] [h] | Ki [18] [µM] | Drug uptake [19] |
| --- | --- | --- | --- | --- | --- | --- | --- | --- | --- | --- | --- | --- | --- | --- | --- | --- | --- | --- | --- |
| CCCCNc1nc(SCC)nc2c1cnn2CC(Cl)c1ccccc1 (stereo unspecified) | – | – | 9.99 | 0.05 (≈ 0.128 µM) | – | – | – | – | – | – | – | – | – | – | – | – | – | – | – |
| CSc1nc(Nc2cccc(Cl)c2)c2cnn(CC(Cl)c3ccccc3)c2n1 (stereo unspecified) | – | – | 3.14 | 0.13 (≈ 0.302 µM) | – | – | 91.1 | 17.2 | 21.8 | 0.72 | 12.5 | 0.26 | – | – | – | – | – | – | – |
| CSc1nc(NCCc2ccccc2)c2cnn(CC(Cl)c3ccccc3)c2n1 (stereo unspecified) | – | – | 6.17 | 0.07 (≈ 0.165 µM) | 7.4 | – | 96.2 | – | – | – | – | – | – | – | – | – | – | – | – |
| CN1CCN(CCOC(=O)N(Cc2ccccc2Cl)c2ncnc3c2cnn3CC(Cl)c2ccc(Br)cc2)CC1 (stereo unspecified) | > 48 | > 48 | 1.92 | 1.95 (≈ 3.01 µM) | 2.38 | 75 | – | – | – | – | – | – | – | – | – | – | – | – | – |
| ClC(Cn1ncc2c(NCc3ccccc3)ncnc21)c1ccccc1 (stereo unspecified) | – | – | – | 0.7 (≈ 1.92 µM) | – | – | 78.3 | 4.9 | 14.6 | – | 2.9 | – | – | – | – | – | – | – | – |
| ClC(Cn1ncc2c(Nc3ccccc3)ncnc21)c1ccc(Br)cc1 (stereo unspecified) | – | – | – | 0.06 (≈ 0.14 µM) | – | – | 96.4 | 17.3 | 25.3 | – | 14 | – | – | – | – | – | – | – | – |
| CSc1nc(Nc2cccc(Cl)c2)c2cnn(CCc3ccccc3)c2n1 | – | – | 1.48 | – | – | – | 99 | – | – | – | – | 0.25 | – | – | – | – | – | – | – |
| Clc1ccccc1CNc1ncnc2c1cnn2CC(Cl)c1ccc(Br)cc1 (stereo unspecified) | – | – | 13.2 | < 0.01 | – | – | 95.2 | – | – | – | – | – | – | – | – | – | – | – | – |

Results, then the compound that gave them:

| half-life at 100 µM [1] [h] | half-life at 100 µM [2] [h] | Papp at 5 h, 500 µM (physchem [3]) [×10⁻⁶ cm/s] | solubility at 24 h (physchem [4]) [µg/mL] | Papp at 5 h, 500 µM (physchem [5]) [×10⁻⁶ cm/s] | half-life [6] [h] | remaining at 1 h, 50 µM [7] [%] | IC50 (cells [8]) [µM] | IC50 (cells [9]) [µM] | Ki [10] [µM] | IC50 (cells [11]) [µM] | Papp [12] [×10⁻⁶ cm/s] | remaining at 1 h, 50 µM [13] [%] | Drug uptake [14] | Drug metabolism [15] | Drug uptake [16] | half-life [17] [h] | Ki [18] [µM] | Drug uptake [19] | Compound |
| --- | --- | --- | --- | --- | --- | --- | --- | --- | --- | --- | --- | --- | --- | --- | --- | --- | --- | --- | --- |
| < 0.25 | < 0.25 | – | – | – | – | – | – | – | – | – | – | – | – | – | – | – | – | – | CSc1nc(N(C(=O)OC(CN2CCN(C)CC2)c2ccccc2)c2cccc(Br)c2)c2cnn(CC(C)c3ccccc3)c2n1 (stereo unspecified) |
| > 48 | > 48 | 0.01 | 107 (≈ 180 µM) | 0.85 | 45.2 | – | – | – | – | – | – | – | – | – | – | – | – | – | CSc1nc(N(CCc2ccccc2)C(=O)OCCN2CCN(C)CC2)c2cnn(CC(Cl)c3ccccc3)c2n1 (stereo unspecified) |
| – | – | 0.5 | 0.01 (≈ 0.022 µM) | 0.01 | – | – | 2.3 | 16.2 | – | 1.5 | – | 94.2 | – | – | – | – | – | – | CSc1nc(Nc2cccc(Br)c2)c2cnn(CC(C)c3ccccc3)c2n1 (stereo unspecified) |
| > 48 | > 48 | 4.14 | 4.22 (≈ 7.03 µM) | 4.95 | 3.71 | – | 7.9 | 11.5 | – | 2.54 | – | – | – | – | – | – | – | – | CSc1nc(N(C(=O)OCCN2CCN(C)CC2)c2cccc(Cl)c2)c2cnn(CC(Cl)c3ccccc3)c2n1 (stereo unspecified) |
| > 48 | > 48 | 1.89 | 6.47 (≈ 10.4 µM) | – | – | – | 2.2 | 7.3 | > 100 | 1.57 | – | 93.3 | Active | Metabolite_Detected | Active | 2 | > 100 | – | CSc1nc(N(C(=O)OCCN2CCN(C)CC2)c2cccc(Br)c2)c2cnn(CC(C)c3ccccc3)c2n1 (stereo unspecified) |
| 1 | 2 | – | – | – | 0.46 | – | – | – | – | – | – | – | – | – | – | – | – | – | CCCCN(C(=O)OCCN1CCN(C)CC1)c1nc(SCC)nc2c1cnn2CC(Cl)c1ccccc1 (stereo unspecified) |
| > 48 | > 48 | 5.01 | 18.8 (≈ 35.2 µM) | 6.7 | 64.4 | 86.4 | 15.2 | 18.6 | – | 15 | – | – | – | – | – | – | – | – | CN1CCN(CCOC(=O)N(Cc2ccccc2)c2ncnc3c2cnn3CC(Cl)c2ccccc2)CC1 (stereo unspecified) |
| > 48 | > 48 | 6.97 | 41.6 (≈ 69.4 µM) | 9.91 | 5.68 | – | 5.1 | 8.2 | – | 2 | – | – | – | – | – | – | – | – | CN1CCN(CCOC(=O)N(c2ccccc2)c2ncnc3c2cnn3CC(Cl)c2ccc(Br)cc2)CC1 (stereo unspecified) |
| > 48 | > 48 | 0.93 | 1.96 (≈ 3 µM) | 1.45 | 11.3 | – | 6.4 | 7.7 | – | 2 | – | – | – | – | – | – | – | – | CCC(CN1CCN(C)CC1)OC(=O)N(c1cccc(Br)c1)c1nc(SC)nc2c1cnn2CC(C)c1ccccc1 (stereo unspecified) |
| > 48 | > 48 | 4.3 | 6.32 (≈ 11.2 µM) | 4.69 | 3.13 | – | – | – | – | – | – | – | – | – | – | – | – | – | CSc1nc(N(C(=O)OCCN2CCN(C)CC2)c2cccc(Cl)c2)c2cnn(CCc3ccccc3)c2n1 |
| > 48 | > 48 | 2.39 | 3.4 (≈ 5.32 µM) | 2.15 | – | – | 4.5 | 7.4 | > 100 | 1.8 | – | – | – | Metabolite_Detected | – | – | > 100 | Active | CSc1nc(N(C(=O)OC(C)CN2CCN(C)CC2)c2cccc(Br)c2)c2cnn(CC(C)c3ccccc3)c2n1 (stereo unspecified) |
| > 48 | > 48 | 1.01 | 0.99 (≈ 1.39 µM) | 2.32 | 40 | – | 2.45 | 6.7 | > 100 | 1.69 | – | – | – | Metabolite_Detected | – | – | > 100 | Active | CSc1nc(N(C(=O)OC(Cc2ccccc2)CN2CCN(C)CC2)c2cccc(Br)c2)c2cnn(CC(C)c3ccccc3)c2n1 (stereo unspecified) |
